Our source for the logD values is ChEMBL document CHEMBL5634191, “Vinylpyridine as a Tunable Covalent Warhead Targeting C797 in EGFR” (ACS Med Chem Lett, 2024).

One may read the logD as lipophilicity at a set pH, counting ionised and neutral species. Lower therefore signals lower lipophilicity.

Molecules are shown by their SMILES.

A short description of the data set: Lipophilicity, log D of the compound at pH 7.4. In kind it is physicochemical. The following applies: buffer.
For `C=Cc1cccc(Oc2cc3c(Nc4cccc(Cl)c4F)ncnc3cc2OC)n1`, the logD is 4.6.

`COC/C=C/c1cc(Oc2cc3c(Nc4cccc(Cl)c4F)ncnc3cc2OC)ccn1` gave a logD of 4.2.

As to `COc1cc2ncnc(Nc3cccc(Cl)c3F)c2cc1Oc1ccnc(/C=C/CN2CCOCC2)c1`, the logD worked out at 3.8.

`C=C(C)c1cc(Oc2cc3c(Nc4cccc(Cl)c4F)ncnc3cc2OC)ccn1` registered a logD of 4.6.

For the compound `C=Cc1ccnc(Oc2cc3c(Nc4cccc(Cl)c4F)ncnc3cc2OC)c1`, the pH-dependent lipophilicity (logD) came to 4.6.

Regarding `CN(C)C/C=C/C(=O)Nc1cc2c(Nc3ccc(F)c(Cl)c3)ncnc2cc1O[C@H]1CCOC1` [AFATINIB], the log distribution coefficient (logD) is 3.6.

Regarding `COc1cc2ncnc(Nc3ccc(F)c(Cl)c3)c2cc1OCCCN1CCOCC1` [GEFITINIB], the logD was found to be 3.8.

Take `C=CC(=O)N1CCC(Oc2cc3c(Nc4ccc(Cl)c(Cl)c4F)ncnc3cc2OC)CC1` [POZIOTINIB]: the logD turned out to be 4.3.
